Measurements reported in ChEMBL document CHEMBL3885861, “Open TG-GATES”.

Species: Rattus norvegicus
Assay: Open TG-GATES - Regimen: Single
Type: toxicity, organism-based, Sprague-Dawley
Design: regimen Single, gender Male, age 6 weeks
Settings: in vivo, po, route gavage; for APTT / Bas / Eos / Fbg / Hb / Ht / Lym / MCH / MCHC / MCV / Mono / Neu / PT / Plat / RBC / Ret / WBC: tissue Blood; for KIDNEY_L / KIDNEY_R / KIDNEY_TOTAL: tissue Kidney; for LIVER: tissue Liver; for A/G / ALP / ALT / AST / BUN / CRE / Ca / Cl / DBIL / GLC / IP / K / LDH / Na / PL / RALB / TBIL / TC / TG / TP / gamma-GTP: tissue Plasma
[1] = 300 mg/kg, 3 h, dose level Middle
[2] = 300 mg/kg, 6 h, dose level Middle
[3] = 300 mg/kg, 9 h, dose level Middle
[4] = 300 mg/kg, 24 h, dose level Middle
[5] = 1000 mg/kg, 3 h, dose level High
[6] = 1000 mg/kg, 6 h, dose level High
[7] = 1000 mg/kg, 9 h, dose level High
[8] = 1000 mg/kg, 24 h, dose level High

O=C(N[C@H](CO)[C@H](O)c1ccc([N+](=O)[O-])cc1)C(Cl)Cl [CHLORAMPHENICOL]
TERMINAL_BW [1]: 221.3 g
APTT [1]: 16.6 s
Bas [1]: 0%
Eos [1]: 1%
Fbg [1]: 268.4 mg/dL
Hb [1]: 13.2 g/dL
Ht [1]: 39%
Lym [1]: 78.2%
MCH [1]: 21.8 pg
MCHC [1]: 33.9%
MCV [1]: 64.1 fL
Mono [1]: 3.2%
Neu [1]: 17.4%
PT [1]: 14.5 s
Plat [1]: 114 x10_4/uL
RBC [1]: 608.8 x10_4/ul
Ret [1]: 8.3%
WBC [1]: 71.3 x10_2/uL
KIDNEY_L [1]: 0.9 g
KIDNEY_R [1]: 0.9 g
KIDNEY_TOTAL [1]: 1.9 g
LIVER [1]: 9.8 g
A/G [1]: 0.9
ALP [1]: 1546.4 IU/L
ALT [1]: 41 IU/L
AST [1]: 76.6 IU/L
BUN [1]: 11 mg/dL
CRE [1]: 0.2 mg/dL
Ca [1]: 11.5 mg/dL
Cl [1]: 105.8 meq/L
DBIL [1]: 0.018 mg/dL
GLC [1]: 181.8 mg/dL
IP [1]: 9.1 mg/dL
K [1]: 4.1 meq/L
LDH [1]: 66.2 IU/L
Na [1]: 139.8 meq/L
PL [1]: 144.2 mg/dL
RALB [1]: 2.5 g/dL
TBIL [1]: 0.064 mg/dL
TC [1]: 76.6 mg/dL
TG [1]: 66 mg/dL
TP [1]: 5.5 g/dL
gamma-GTP [1]: 1.2 IU/L
TERMINAL_BW [2]: 221.3 g
APTT [2]: 17.6 s
Bas [2]: 0%
Eos [2]: 0.8%
Fbg [2]: 284 mg/dL
Hb [2]: 13.4 g/dL
Ht [2]: 42.8%
Lym [2]: 79.8%
MCH [2]: 21.7 pg
MCHC [2]: 31.3%
MCV [2]: 69.4 fL
Mono [2]: 2.6%
Neu [2]: 16.8%
PT [2]: 15 s
Plat [2]: 107.3 x10_4/uL
RBC [2]: 618.2 x10_4/ul
Ret [2]: 8.2%
WBC [2]: 68.7 x10_2/uL
KIDNEY_L [2]: 0.9 g
KIDNEY_R [2]: 1 g
KIDNEY_TOTAL [2]: 1.9 g
LIVER [2]: 8.8 g
A/G [2]: 0.9
ALP [2]: 1672 IU/L
ALT [2]: 40.8 IU/L
AST [2]: 72.2 IU/L
BUN [2]: 9.4 mg/dL
CRE [2]: 0.2 mg/dL
Ca [2]: 11.4 mg/dL
Cl [2]: 106 meq/L
DBIL [2]: 0.014 mg/dL
GLC [2]: 184.4 mg/dL
IP [2]: 9.8 mg/dL
K [2]: 4.4 meq/L
LDH [2]: 79 IU/L
Na [2]: 141 meq/L
PL [2]: 138.2 mg/dL
RALB [2]: 2.5 g/dL
TBIL [2]: 0.07 mg/dL
TC [2]: 76.6 mg/dL
TG [2]: 60 mg/dL
TP [2]: 5.4 g/dL
gamma-GTP [2]: 1 IU/L
TERMINAL_BW [3]: 221.3 g
APTT [3]: 16.4 s
Bas [3]: 0%
Eos [3]: 0.8%
Fbg [3]: 273.4 mg/dL
Hb [3]: 13.2 g/dL
Ht [3]: 42.2%
Lym [3]: 81.6%
MCH [3]: 20.5 pg
MCHC [3]: 31.4%
MCV [3]: 65.4 fL
Mono [3]: 1.8%
Neu [3]: 15%
PT [3]: 15.2 s
Plat [3]: 109.8 x10_4/uL
RBC [3]: 646.2 x10_4/ul
Ret [3]: 7.4%
WBC [3]: 55.9 x10_2/uL
KIDNEY_L [3]: 0.9 g
KIDNEY_R [3]: 0.9 g
KIDNEY_TOTAL [3]: 1.8 g
LIVER [3]: 8.3 g
A/G [3]: 0.9
ALP [3]: 1711.2 IU/L
ALT [3]: 34.6 IU/L
AST [3]: 70.2 IU/L
BUN [3]: 10.2 mg/dL
CRE [3]: 0.2 mg/dL
Ca [3]: 11.1 mg/dL
Cl [3]: 105 meq/L
DBIL [3]: 0.014 mg/dL
GLC [3]: 180.4 mg/dL
IP [3]: 10.2 mg/dL
K [3]: 4.5 meq/L
LDH [3]: 59.4 IU/L
Na [3]: 139.8 meq/L
PL [3]: 122 mg/dL
RALB [3]: 2.5 g/dL
TBIL [3]: 0.068 mg/dL
TC [3]: 67.8 mg/dL
TG [3]: 36 mg/dL
TP [3]: 5.3 g/dL
gamma-GTP [3]: 1.2 IU/L
TERMINAL_BW [4]: 227.9 g
APTT [4]: 18.8 s
Bas [4]: 0%
Eos [4]: 0.8%
Fbg [4]: 258.8 mg/dL
Hb [4]: 13.7 g/dL
Ht [4]: 42.4%
Lym [4]: 84.4%
MCH [4]: 21.7 pg
MCHC [4]: 32.1%
MCV [4]: 67.6 fL
Mono [4]: 2.8%
Neu [4]: 11.6%
PT [4]: 14.8 s
Plat [4]: 118.7 x10_4/uL
RBC [4]: 628.2 x10_4/ul
Ret [4]: 7.8%
WBC [4]: 66 x10_2/uL
KIDNEY_L [4]: 1 g
KIDNEY_R [4]: 1 g
KIDNEY_TOTAL [4]: 2 g
LIVER [4]: 9.4 g
A/G [4]: 0.9
ALP [4]: 1891.8 IU/L
ALT [4]: 48.2 IU/L
AST [4]: 76.6 IU/L
BUN [4]: 14.8 mg/dL
CRE [4]: 0.2 mg/dL
Ca [4]: 11.5 mg/dL
Cl [4]: 105.4 meq/L
DBIL [4]: 0.02 mg/dL
GLC [4]: 190.4 mg/dL
IP [4]: 8.8 mg/dL
K [4]: 4.5 meq/L
LDH [4]: 65 IU/L
Na [4]: 141.6 meq/L
PL [4]: 157.6 mg/dL
RALB [4]: 2.5 g/dL
TBIL [4]: 0.062 mg/dL
TC [4]: 86 mg/dL
TG [4]: 81 mg/dL
TP [4]: 5.5 g/dL
gamma-GTP [4]: 1 IU/L
TERMINAL_BW [5]: 221.6 g
APTT [5]: 17.1 s
Bas [5]: 0%
Eos [5]: 1%
Fbg [5]: 263.6 mg/dL
Hb [5]: 13.5 g/dL
Ht [5]: 39.6%
Lym [5]: 73%
MCH [5]: 21.7 pg
MCHC [5]: 34.2%
MCV [5]: 63.7 fL
Mono [5]: 3.8%
Neu [5]: 21.8%
PT [5]: 14.9 s
Plat [5]: 112.6 x10_4/uL
RBC [5]: 622.4 x10_4/ul
Ret [5]: 7.8%
WBC [5]: 76.3 x10_2/uL
KIDNEY_L [5]: 1 g
KIDNEY_R [5]: 1 g
KIDNEY_TOTAL [5]: 2 g
LIVER [5]: 9.5 g
A/G [5]: 0.9
ALP [5]: 1586 IU/L
ALT [5]: 42 IU/L
AST [5]: 78.4 IU/L
BUN [5]: 8.4 mg/dL
CRE [5]: 0.2 mg/dL
Ca [5]: 10.9 mg/dL
Cl [5]: 106.6 meq/L
DBIL [5]: 0.012 mg/dL
GLC [5]: 182.4 mg/dL
IP [5]: 9 mg/dL
K [5]: 4.2 meq/L
LDH [5]: 56.4 IU/L
Na [5]: 140 meq/L
PL [5]: 137.2 mg/dL
RALB [5]: 2.6 g/dL
TBIL [5]: 0.064 mg/dL
TC [5]: 70.4 mg/dL
TG [5]: 63 mg/dL
TP [5]: 5.5 g/dL
gamma-GTP [5]: 1 IU/L
TERMINAL_BW [6]: 221.4 g
APTT [6]: 16.8 s
Bas [6]: 0%
Eos [6]: 1%
Fbg [6]: 278.4 mg/dL
Hb [6]: 13.9 g/dL
Ht [6]: 45.6%
Lym [6]: 73.8%
MCH [6]: 21.1 pg
MCHC [6]: 30.4%
MCV [6]: 69.3 fL
Mono [6]: 2%
Neu [6]: 23.2%
PT [6]: 15 s
Plat [6]: 113 x10_4/uL
RBC [6]: 657.2 x10_4/ul
Ret [6]: 7.7%
WBC [6]: 59.5 x10_2/uL
KIDNEY_L [6]: 0.9 g
KIDNEY_R [6]: 0.9 g
KIDNEY_TOTAL [6]: 1.8 g
LIVER [6]: 8.5 g
A/G [6]: 0.9
ALP [6]: 1369 IU/L
ALT [6]: 33.2 IU/L
AST [6]: 69 IU/L
BUN [6]: 7.8 mg/dL
CRE [6]: 0.2 mg/dL
Ca [6]: 11.1 mg/dL
Cl [6]: 107 meq/L
DBIL [6]: 0.01 mg/dL
GLC [6]: 186.2 mg/dL
IP [6]: 10.3 mg/dL
K [6]: 4.1 meq/L
LDH [6]: 57.6 IU/L
Na [6]: 141.4 meq/L
PL [6]: 128.2 mg/dL
RALB [6]: 2.6 g/dL
TBIL [6]: 0.072 mg/dL
TC [6]: 70 mg/dL
TG [6]: 26.2 mg/dL
TP [6]: 5.5 g/dL
gamma-GTP [6]: 1 IU/L
TERMINAL_BW [7]: 221.1 g
APTT [7]: 17 s
Bas [7]: 0%
Eos [7]: 0.8%
Fbg [7]: 281.4 mg/dL
Hb [7]: 13.8 g/dL
Ht [7]: 44%
Lym [7]: 80.2%
MCH [7]: 21.4 pg
MCHC [7]: 31.4%
MCV [7]: 68.2 fL
Mono [7]: 1.6%
Neu [7]: 17.8%
PT [7]: 15.6 s
Plat [7]: 107.2 x10_4/uL
RBC [7]: 644.8 x10_4/ul
Ret [7]: 7.5%
WBC [7]: 53.4 x10_2/uL
KIDNEY_L [7]: 0.9 g
KIDNEY_R [7]: 0.9 g
KIDNEY_TOTAL [7]: 1.8 g
LIVER [7]: 8.5 g
A/G [7]: 0.9
ALP [7]: 1491.8 IU/L
ALT [7]: 30 IU/L
AST [7]: 68 IU/L
BUN [7]: 8.2 mg/dL
CRE [7]: 0.2 mg/dL
Ca [7]: 10.9 mg/dL
Cl [7]: 105.4 meq/L
DBIL [7]: 0.018 mg/dL
GLC [7]: 176.6 mg/dL
IP [7]: 10.6 mg/dL
K [7]: 4.2 meq/L
LDH [7]: 69.6 IU/L
Na [7]: 140 meq/L
PL [7]: 125.8 mg/dL
RALB [7]: 2.5 g/dL
TBIL [7]: 0.074 mg/dL
TC [7]: 66.6 mg/dL
TG [7]: 44 mg/dL
TP [7]: 5.5 g/dL
gamma-GTP [7]: 1 IU/L
TERMINAL_BW [8]: 222.4 g
APTT [8]: 16.6 s
Bas [8]: 0%
Eos [8]: 0.8%
Fbg [8]: 255.8 mg/dL
Hb [8]: 14.2 g/dL
Ht [8]: 44.2%
Lym [8]: 83%
MCH [8]: 21.3 pg
MCHC [8]: 32.1%
MCV [8]: 66.4 fL
Mono [8]: 4%
Neu [8]: 11.6%
PT [8]: 15.7 s
Plat [8]: 121.3 x10_4/uL
RBC [8]: 665 x10_4/ul
Ret [8]: 6.3%
WBC [8]: 54.2 x10_2/uL
KIDNEY_L [8]: 0.9 g
KIDNEY_R [8]: 0.9 g
KIDNEY_TOTAL [8]: 1.9 g
LIVER [8]: 9.4 g
A/G [8]: 0.9
ALP [8]: 1571.8 IU/L
ALT [8]: 45.8 IU/L
AST [8]: 79.2 IU/L
BUN [8]: 14.4 mg/dL
CRE [8]: 0.2 mg/dL
Ca [8]: 11.6 mg/dL
Cl [8]: 106.8 meq/L
DBIL [8]: 0.016 mg/dL
GLC [8]: 184.8 mg/dL
IP [8]: 9.1 mg/dL
K [8]: 4.1 meq/L
LDH [8]: 64 IU/L
Na [8]: 142.2 meq/L
PL [8]: 122.4 mg/dL
RALB [8]: 2.6 g/dL
TBIL [8]: 0.068 mg/dL
TC [8]: 65.2 mg/dL
TG [8]: 50.8 mg/dL
TP [8]: 5.6 g/dL
gamma-GTP [8]: 1 IU/L
